Among the data in PubChem BioAssay AID1508591 are half-life values, retold here.

For the series the following is noted: rat; liver microsomes; pH 7.4; 15.0 min; 1.0 µM. On the technique in general: Microsomes from liver hold many membrane-bound enzymes, among them those of drug oxidation.

Several values for one entry are separate records, joined by “and”; a condition that tells them apart may be missing. Identical values can stand only once. A value given as a limit tells only on which side of the number the result lay.

A word on the half-life: it is how long it takes for the measured level to halve. Consider `COc1ccc(C(=O)N2CCC3(CC2)CN(c2cccc(-c4ccccc4)c2)C3)cc1`, for which the half-life was found to be 22 min.

`Fc1ccc(F)c(Nc2nc(-c3ccncc3)nc3ccccc23)c1` displayed a half-life of 10 min.

`Cc1ccc(CNc2ccccc2C(=O)Nc2nc(-c3ccccc3)cs2)cc1` showed a half-life above 30 min.

The compound `COc1ccc(C[C@@H]2C(=O)N[C@H](C)C(=O)N(C)[C@@H]3C(=O)N(C)[C@@H](Cc4ccc(O)c(c4)Oc4ccc(cc4)[C@H]3O)C(=O)N[C@@H](C)C(=O)N[C@H](C)C(=O)N2C)cc1` came in with a half-life of 27.6 min.

`CC(C)Oc1ccc(CNC(=O)C2CCN(C(=O)N3CCOc4ccc(Cl)cc43)CC2)cc1` came in with a half-life of 9.17 min.

For `COc1cc2c(Nc3ccc(Br)cc3F)ncnc2cc1OCC1CCN(C)CC1`, the half-life was above 30 min.

With `CCNC(=O)c1ccc(-c2ccc3ncnc(NCC4CCCO4)c3c2)o1` (centres undefined), the half-life is above 30 min.

Take `Oc1ccc(CNc2ccccc2C(F)(F)F)c2cccnc12`: the half-life was 4.99 min.

`Oc1ccc(Nc2nc(-c3ccncc3)nc3ccccc23)cc1F` returned a half-life of 28 min.

As for `COc1cc(-c2cn(C)c(=O)c3cnccc23)c(OC)cc1CN(C)C`, the half-life was above 30 min.

Compound `Fc1ccc(-c2nc(-c3ccncc3)nc3ccccc23)cc1F` came in with a half-life of 20 min.

Compound `O=C(/C=C/c1cn(CC(O)CN2CCCCCC2)c2ccccc12)c1ccc(Br)cc1` (centres undefined) displayed a half-life of 24.2 min.

`CCOC(=O)c1cc(C)sc1NC(=O)c1ccc(Cl)s1`: the half-life was found to be 5.49 min.

On to `COc1ccc(Cl)cc1C(=O)Nc1nc(-c2ccccc2)cs1`, for which the half-life stood at 24 min.

For the compound `CCCc1cc(C)[nH]c(=O)c1CNC(=O)c1cc(-c2ccc(N3CCN(C(C)C)CC3)nc2)cc2c1cnn2C(C)C`, the half-life came out at 25 min.

For the compound `CC(=O)c1ccc(N[S+](=O)([O-])c2cccc(NC(=O)c3[nH]c(C)c(C(C)=O)c3C)c2)cc1`, the half-life was found to be 21 min.

On to `COc1cccc(C(=O)Nc2nnc(S(=O)(=O)N3CCOCC3)s2)c1`, for which the half-life is above 30 min.

The compound `CN1C(=O)C(=O)N2C(=C[C@]3(c4c[nH]c5ccccc45)c4ccccc4N[C@H]23)C1=O` returned a half-life of 4.83 min.

Consider `O=C1NCc2ccc(-c3cc4c(ccn4Cc4cccnc4)c(C4=CCOCC4)n3)cc21`, for which the half-life was 19.5 min.

As to `COc1ccc2[nH]c(=O)c(-c3noc(-c4ccc(F)cc4)n3)cc2c1`, the half-life was above 30 min.

Take `CN=C1CN=C(c2ccc[nH]2)c2cc(Cl)ccc2N1`: the half-life is > 30 min and 23 min.

As for `COc1ccc(CNC(=O)Cn2nc3c(cc2=O)CCCC3)cc1`, the half-life was above 30 min.

Compound `Cn1c(=O)cc(C(=O)NC2CCCc3c2[nH]c2c(Cl)cccc32)c2ccccc21` (centres undefined) displayed a half-life of 10.1 min.

In turn, `Cc1cn(-c2cc(NC(=O)c3ccc(C)c(Nc4nccc(-c5cccnc5)n4)c3)cc(C(F)(F)F)c2)cn1` registered a half-life above 30 min.

For `Cc1ccc(-c2cc(C(=O)Nc3ccc(S(=O)(=O)NCc4nccs4)cc3)c3ccccc3n2)cc1C`, the half-life was found to be 5.8 min.

In the case of `CCN(CCN(C)C)C(=O)C1CCN(S(=O)(=O)c2c(C)noc2/C=C/c2ccccc2F)CC1`, the half-life was above 30 min.

For `CCOc1ccc(CCNC(=O)c2cc3cccnc3n2Cc2cccc(C)n2)cc1OCC`, the half-life was 1.7 min.

Regarding `CC(=O)N1CCc2cc(-c3nc(NC(=O)Cc4ccc5c(c4)OCO5)sc3C)ccc21`, the half-life worked out at 20 min.

`CC(=O)N1CCc2c(sc3c2c(=O)n(-c2ccccc2Cl)c(=O)n3Cc2cccc(C)c2)C1` yielded a half-life of 1.41 min.

`COc1ccc(-c2nc3ccccc3c(=O)n2Cc2ccccc2)cc1COc1ccc(NC(C)=O)cc1` showed a half-life of 3.16 min.

Take `Cc1cc(-c2nnc3n2CCCCC3)c(C)n1-c1ccc(C(F)(F)F)cc1`: the half-life was found to be 2.1 min.

In turn, `Cc1nn(CCc2nc(-c3ccc(OC(F)F)cc3)cs2)c2[nH]c(=O)cc(C(F)(F)F)c12` yielded a half-life of 6.9 min.

Take `CC1=C(C(=O)NCc2ccccc2)C(c2ccccc2Br)N=C(Nc2nc3ccccc3o2)N1` (centres undefined): the half-life was 7 min.

`O=c1[nH]c(N2CCOCC2)nc2c1CCN(Cc1ccc(Cl)cc1F)CC2` gave a half-life above 30 min.

On to `O=S(=O)(Nc1ccc(C2CCNCC2)cc1)c1ccc(NCc2cccc(Cl)c2O)cc1`, for which the half-life was 20 min.

`O=C(c1ccc2c(c1)ncn2-c1ccccc1)N1CCCCC1` returned a half-life of 16 min.

`Cc1noc(C)c1C(=O)N1CCC2(CCCN(Cc3ccccc3)C2)CC1` came in with a half-life of 7.2 min.

In the case of `CCOC(=O)c1ccc2c(c1)c(C(C)=O)c(C)n2-c1ccc(OC)cc1`, the half-life came out at 1.5 min.

Consider `COc1ccccc1CNS(=O)(=O)c1ccc(-c2cnc(C3CC3)o2)cc1`, for which the half-life amounted to 1.58 min.

`CC(=O)N1CCN(c2ccc(OCc3nn(C)c(C)c3-c3cccc4c(CCCOc5cccc6ccccc56)c(C(=O)O)n(Cc5cccnc5)c34)cc2)CC1` returned a half-life of 15 min.

Compound `COc1ccccc1C(=O)Nc1nnc(SCc2cc(=O)c3ccccc3[nH]2)s1` had a half-life of 7.49 min.

For `CCOc1ccc(CCNC(=O)c2cc3ccccc3n2Cc2ccccn2)cc1OCC`, the half-life was 1.5 min.

`OC[C@H]1O[C@H](O[C@H]2O[C@H](CO)[C@@H](O)[C@H](O)[C@H]2O)[C@H](O)[C@@H](O)[C@@H]1O` had a half-life above 30 min.

Regarding `Nc1ncnc(N2CCc3ccccc32)c1[N+](=O)[O-]`, the half-life was 8.6 min.

In the case of `Cc1nn(CCc2nc(-c3ccccc3F)cs2)c2[nH]c(=O)cc(C(F)(F)F)c12`, the half-life stood at 9.3 min.

`Cc1cnc(-c2ccccc2C2CC2)nc1NCc1ccc(-c2cccnc2)cc1`: the half-life worked out at 6.2 min.

For `CC1=Nc2cc(C(=O)NCc3ccccc3Cl)ccc2Sc2c(C)ccc(C)c21`, the half-life came out at 1.96 min.

Turning to `CCOC(=O)c1[nH]c(C)c(CCC(=O)N2CCN(c3cc(C)ccc3C)CC2)c1C`, the half-life was found to be 2.27 min.

On to `CCCN(C(=O)c1sc2nc3n(c(=O)c2c1C)CCCC3)c1ccccc1C`, for which the half-life is 1.36 min.

The compound `CCc1ccc(C2N=C(N)Nc3nc4ccccc4n32)cc1` (centres undefined) displayed a half-life of 5.62 min.

Compound `O=C(c1ccc(-c2ncc3cnc(-c4ccccc4)cn23)cc1)N1CCS(=O)(=O)CC1` displayed a half-life above 30 min.

`c1cc(-c2cc(-c3ccncc3)c3cncn3c2)c2cc[nH]c2c1` registered a half-life of 5.63 min.

`CCOC(=O)c1ccc(NC2CCCCC2)c(N)c1` returned a half-life of 2.5 min.

In turn, `Cc1ccc(S(=O)(=O)Nc2cnccc2C(=O)Nc2nc(C(=O)O)cs2)cc1` yielded a half-life above 30 min.

With `COC(=O)c1ccccc1NC(=O)c1ccccc1OC(F)F`, the half-life was found to be 2.8 min.

With `CCc1ccc(C(=O)Nc2cc(CN3CCN(C)CC3)cc(C(F)(F)F)c2)cc1C#Cc1cnc2ccnn2c1`, the half-life was above 30 min.

`CCOC(=O)c1nn(-c2ccc(OC)cc2)c(=O)c2c(N)scc12` showed a half-life of 9.52 min.

As to `Fc1cnc(-c2ccccc2C(F)F)nc1NCc1ccc(-c2cccnc2)cc1`, the half-life stood at 7.1 min.

Compound `Cc1cc(-c2nnc3n2CCCCC3)c(C)n1-c1ccccc1` displayed a half-life of 3.27 min.

`COc1ccc(NC(=O)c2ccc[nH]2)cc1S(=O)(=O)Nc1ccc(Br)cc1`: the half-life amounted to 7.44 min.

On to `CCOc1ccc(CCNC(=O)c2cc3cnccc3n2Cc2cccc(C)c2)cc1OCC`, for which the half-life amounted to 6.9 min.

For `COc1cccc(NC(=O)c2cc(-c3ccc(C)c(C)c3)nc3ccccc23)c1`, the half-life came out at 12 min.

For `Cc1ccc(-c2cc(C(=O)Nc3ccc(S(N)(=O)=O)cc3)c3cccc(C)c3n2)cc1C`, the half-life is above 30 min.

The compound `CC(C)(O)C=CC(=O)[C@](C)(O)[C@H]1[C@H](O)C[C@]2(C)[C@@H]3CC=C4[C@@H](C=C(O)C(=O)C4(C)C)[C@]3(C)C(=O)C[C@@]12C` came in with a half-life above 30 min.

Consider `CNC(=O)c1ccccc1Nc1nc(Nc2ccc(N3CCOCC3)cc2OC)ncc1Cl`, for which the half-life was above 30 min.

`O=C1CCCC2=C1C1(CCSC1)N=C(Nc1nc3ccccc3o1)N2` (centres undefined) displayed a half-life of 2.5 min.

For the compound `CN(C)C(=O)c1nc(-c2ccc(Cl)nc2)c2ccccn12`, the half-life was above 30 min.

As to `Cc1nnn(C)c1-c1cnc2c3ccc(C(C)(C)O)cc3n([C@H](c3ccccc3)C3CCOCC3)c2c1`, the half-life was above 30 min.

`O=S(=O)(Nc1nccs1)c1ccc(NCc2cccc(Cl)c2O)cc1` gave a half-life of 14 min.
